Assay results published in US8974807B2, “Active agent combinations” (Bayer Cropscience AG, priority 2000, dated 2015).

How the values were obtained:
[1] = system: whitefly (Trialeurodes vaporariorum); assay: Trialeurodes test (Example 1), sprayed red sage infested by all stages of whitefly; assay type: in vivo; conditions: 100 g/ha, sprayed on Lantana camara at 7-day intervals; evaluation 15 days after the second treatment
Procedure: (§1) To produce a suitable preparation of active compound, a commercial formulation of active compound or active compound combination is mixed with water until the desired concentration is reached.
Red sage (Lantana camara) which is heavily infested by all stages of the whitefly (Trialeurodes vaporariorum) is sprayed in intervals of 7 days in each case with a preparation of active compound at the desired application rate.
Evaluation is carried out 15 days after the second treatment. 100% means that all flies have been killed, whilst 0% means that none of the flies have been killed.

[2] = system: whitefly (Trialeurodes vaporariorum); assay: Trialeurodes test (Example 2), sprayed red sage infested by whitefly, evaluated at 15, 19 and 25 days; assay type: in vivo; conditions: 100 g/ha
Procedure: as §1
Red sage (Lantana camara) which is heavily infested by the whitefly (Trialeurodes vaporariorum) is sprayed in intervals of 7 days in each case with a preparation of active compound at the desired application rate.
Evaluation is carried out 15, 19 and 25 days after the second treatment. 100% means that all flies have been […], whilst 0% means that none of the flies have been killed.

Structure (SMILES): N#C/N=C1\SCCN1Cc1ccc(Cl)nc1 [(16) thiacloprid, thiacloprid]
- Kill rate in % [1]: 72.8%
- Kill rate in % 15 days after the second treatment ([2]; 15 days after the second treatment): 72.8%
- Kill rate in % 19 days after the second treatment ([2]; 19 days after the second treatment): 39.5%
- Kill rate in % 25 days after the second treatment ([2]; 25 days after the second treatment): 0%
